The source of these data is patent US9717665B2, “Tooth desensitizing oral care compositions, devices, and methods” (The Procter & Gamble Company, priority 2013, dated 2017).

In the assay the test system is human 3rd molar coronal dentin. In words: Dentinal flow rate measurement (Pashley-like flow cell). Conditions: repeated deposition. The procedure: Volumetric flow rates through cross-sections of human 3rd molar coronal dentin are measured before and after treatment using a flow cell apparatus (FIG. 6). Twenty two coronal dentin sections of human molars are obtained by cross sectional cutting with a diamond blade saw to a thickness between 0.80 and 1.00 mm. The sections resemble disks due to the circular nature of molars. The center of the disk is dentin 90 with a thin ring of enamel around the circumference (FIG. 6). The cut dentin disks are then placed in 6.0% citric acid for two minutes followed by sonication in water and subsequent rinsing to remove the smear layer created by the cutting process. The removal of the smear layer with citric acid is an effective and well known technique to produce open dentinal tubules representative of sensitive dentin found in-vivo. […]
Each dentin disk section is centered over the opening with flat washers 110 and bushing 120 on each side, making sure that the section spanned the opening with at least 1 mm overlap around the entire perimeter. […] The liquid velocity is recorded by timing the movement of the bubble within the supply line. […] Using a digital stop watch, elapsed times are recorded over 4 equidistant points along the ruler to establish the average rate the bubble travels and to ensure the velocity is constant. […]

For the molecule `O=C(O)C(=O)O` [oxalate], the “Flow rates through dentin” value is recorded as “significantly reduce flow rates through dentin”.
